Measured values as given in the supplement of paper PMC13380429.

How the values were obtained:
Conditions in all cases: 72 h
Vero E6 [1] = experiment: cell viability relative to DMSO; higher = less toxic
Caco-2 [2] = experiment: as above
HepG2 [3] = experiment: as above
U2OS [4] = experiment: as above
Vero E6 [5] = experiment: drug sensitivity score (DSS) for viability; higher = more toxic; extreme values may be limits of the assay
Caco-2 [6] = experiment: as above
HepG2 [7] = experiment: as above
U2OS [8] = experiment: as above
Vero E6 [9] = experiment: relative viability EC50 (midpoint between 100% and the lowest measured viability); higher = less toxic
Caco-2 [10] = experiment: as above
HepG2 [11] = experiment: as above
U2OS [12] = experiment: as above
Calu-3 [13] = experiment: cell viability relative to DMSO; higher = less toxic
Calu-3 [14] = experiment: drug sensitivity score (DSS) for viability; higher = more toxic; extreme values may be limits of the assay
Calu-3 [15] = experiment: relative viability EC50 (midpoint between 100% and the lowest measured viability); higher = less toxic

SMILES | cell viability (Vero E6 [1]; 1 nM) | cell viability (Vero E6 [1]; 10 nM) | cell viability (Vero E6 [1]; 100 nM) | cell viability (Vero E6 [1]; 1000 nM) | cell viability (Vero E6 [1]; 10000 nM) | cell viability (Caco-2 [2]; 1 nM) | cell viability (Caco-2 [2]; 10 nM) | cell viability (Caco-2 [2]; 100 nM) | cell viability (Caco-2 [2]; 1000 nM) | cell viability (Caco-2 [2]; 10000 nM) | cell viability (HepG2 [3]; 1 nM) | cell viability (HepG2 [3]; 10 nM) | cell viability (HepG2 [3]; 100 nM) | cell viability (HepG2 [3]; 1000 nM) | cell viability (HepG2 [3]; 10000 nM) | cell viability (U2OS [4]; 1 nM) | cell viability (U2OS [4]; 10 nM) | cell viability (U2OS [4]; 100 nM) | cell viability (U2OS [4]; 1000 nM) | cell viability (U2OS [4]; 10000 nM) | drug sensitivity score (Vero E6 [5]) | drug sensitivity score (Caco-2 [6]) | drug sensitivity score (HepG2 [7]) | drug sensitivity score (U2OS [8]) | relative viability EC50 (Vero E6 [9]) | relative viability EC50 (Caco-2 [10]) | relative viability EC50 (HepG2 [11]) | relative viability EC50 (U2OS [12]) | cell viability (Calu-3 [13]; 1 nM) | cell viability (Calu-3 [13]; 10 nM) | cell viability (Calu-3 [13]; 100 nM) | cell viability (Calu-3 [13]; 1000 nM) | cell viability (Calu-3 [13]; 10000 nM) | drug sensitivity score (Calu-3 [14]) | relative viability EC50 (Calu-3 [15])
N#Cc1c(-c2ccccc2)cc(-c2cc(Br)ccc2O)[nH]c1=O [TCS-PIM-1-1] | 96.9% | 101% | 95.5% | 96% | 93.1% | 96.7% | 101% | 104% | 97.5% | 88.8% | 94.9% | 99.4% | 99.7% | 94.5% | 99.2% | 99% | 96.3% | 102% | 97.6% | 93.9% | 0 | 0.1 | 0 | 0 | > 10 µM | > 10 µM | > 10 µM | > 10 µM |  |  |  |  |  |  | 
Cc1ccc(C(=O)Cn2c3c(sc2=N)CCCC3)cc1 [pifithrin-alpha] | 98.9% | 97.2% | 100% | 98.9% | 96.1% | 102% | 89.9% | 97.1% | 99.3% | 90.1% | 106% | 97.3% | 101% | 100% | 99% | 96.6% | 97.5% | 92.9% | 94.4% | 93.5% | 0 | 0 | 0 | 0 | > 10 µM | > 10 µM | > 10 µM | > 10 µM |  |  |  |  |  |  | 
Fc1ccc(C(OCCN2CCN(CCCc3ccccc3)CC2)c2ccc(F)cc2)cc1 [vanoxerine] | 107% | 104% | 104% | 97.1% | 35.3% | 103% | 93.2% | 99.9% | 93.1% | 50.3% | 102% | 102% | 102% | 104% | 11% | 106% | 102% | 103% | 102% | 72.4% | 3.9 | 3.8 | 4.6 | 1 | 2.82 µM |  | 3.42 µM |  | 102% | 94.6% | 102% | 98.9% | 81.2% | 0.6 | > 10 µM
CCN(CC)CC(=O)Nc1c(C)cccc1C [lidocaine] | 108% | 101% | 105% | 97.8% | 97.9% | 103% | 108% | 90.8% | 80.4% | 97% | 101% | 97.4% | 88.1% | 116% | 107% | 99.7% | 105% | 94.8% | 97.2% | 100% | 0 | 3.6 | 0 | 0 | > 10 µM | > 10 µM | > 10 µM | > 10 µM |  |  |  |  |  |  | 
COC(=O)N1CC[C@@H]2[C@H]1CCC[C@@]2(O)C#Cc1cccc(C)c1 [mavoglurant] | 104% | 101% | 106% | 104% | 97.4% | 110% | 120% | 100% | 98.4% | 108% | 102% | 107% | 95.5% | 91.8% | 114% | 103% | 99.9% | 102% | 101% | 95.8% | 0 | 0 | 0 | 0 | > 10 µM | > 10 µM | > 10 µM | > 10 µM |  |  |  |  |  |  | 
Cc1noc2c1-c1ccccc1C(c1ccc(Cl)cc1)=N[C@H]2CC(N)=O [CPI-0610] | 111% | 108% | 88.4% | 38.5% | 16.2% | 104% | 108% | 106% | 94.5% | 80.6% | 109% | 111% | 101% | 75.2% | 49.4% | 105% | 108% | 97.3% | 84.1% | 47.6% | 13 | 1.2 | 5.9 | 5.1 | 0.449 µM | > 10 µM | 1.02 µM | 1.42 µM | 103% | 99.7% | 105% | 90% | 64.7% | 3.2 | 
CC(C)(C)C[C@@H]1N[C@@H](C(=O)N[C@H]2CC[C@H](O)CC2)[C@H](c2cccc(Cl)c2F)[C@]12C(=O)Nc1cc(Cl)ccc12 | 100% | 102% | 97.8% | 63.4% | 49.3% | 97.7% | 104% | 91% | 94.3% | 73.2% | 108% | 95.8% | 95.5% | 28.7% | 24.2% | 99.6% | 109% | 96.3% | 80.7% | 58.2% | 7.2 | 1.7 | 13.8 | 4.2 | 0.583 µM |  | 0.315 µM |  | 90.6% | 92.3% | 95.5% | 110% | 73.1% | 0.7 | 
CSc1nc(N)cc(Oc2ccc(-c3nnc(Nc4cccc(C(F)(F)F)c4)[nH]3)cc2)n1 [KG-5] | 98.9% | 103% | 105% | 94.8% | 33.1% | 96.7% | 98.7% | 105% | 84.1% | 35.2% | 93.9% | 96% | 92.5% | 99.6% | 25.2% | 102% | 101% | 97.5% | 92.9% | 34.7% | 4.5 | 6 | 4.2 | 4.8 | 2.54 µM | 1.57 µM | 3.12 µM | 2.26 µM | 90.3% | 95.4% | 92.7% | 93.2% | 61.8% | 3 | 
